Earlier results in PMC5259778, “Candidate pheromone receptors of codling moth Cydia pomonella respond to pheromones and kairomones” (Scientific Reports, 2017).
≈ marks a conversion by molar mass, not a printed value.

Conditions: ref Scifinder, 2015; Chemspider; cited from earlier work

| SMILES | LogP | Solubility (M) | Solubility |
| --- | --- | --- | --- |
| CCC/C=C/C=O [(E)-2-hexenal] | 1.790±0.281 | 0,09 M |  |
| CC/C=C\CCO [(Z)-3-hexenol] |  |  | 140 mM (≈ 14 mg/mL) |
| O=Cc1ccccc1 [benzaldehyde] | 1.452±0.242 | 0,02 M |  |
| COCc1ccccc1 [benzyl methyl ether] | 1.843±0.239 | 0,05 M |  |
| CC(C)(C)c1ccc(CCC=O)cc1 [bourgeonal] | 3.486±0.245 | 4,50E-04 M |  |
| O=C1CCCCC1 [cyclohexanone] | 0.821±0.251 |  | 150 mM (≈ 14.7 mg/mL) |
| CCCc1ccc(O)c(OC)c1 [dihydro eugenol, 2-methoxy-4-propylphenol] | 2.943±0.224 | 6,00E-03 M |  |
| C=CCc1ccc(O)c(OC)c1 [eugenol] | 2.403±0.236 |  |  |
| CC(C)=CCC/C(C)=C/CO [geraniol] | 2.942±0.271 |  |  |
| CC(C=O)Cc1ccc2c(c1)OCO2 (centres unmarked) [helional] | 1.982±0.343 |  |  |
| O=Cc1ccc2c(c1)OCO2 [heliotropin] | 1.050±0.302 |  |  |
| CCCCCCCOC(=O)CCC [heptyl butyrate] | 4.352±0.206 |  |  |
| C/C=C/c1ccc2c(c1)OCO2 [isosafrol] | 3.904±0.349 | 5,90E-04 M |  |
| COC(=O)c1ccccc1 [methyl benzoate] |  | 0,02 M |  |
| C=CCc1ccc(OC)c(OC)c1 [methyl eugenol] | 2.655±0.243 |  |  |
| CCCCC(=O)OC [methyl valerate] | 1.804±0.205 |  |  |
| C/C=C/c1ccc(OC)c(OC)c1 [methyl-iso-eugenol] | 3.049±0.239 |  | 3.6 mM (≈ 0.642 mg/mL) |
| O=CCc1ccccc1 [phenyl acetaldehyde] | 1.760±0.224 | 0,016 M |  |
| NCCc1ccccc1 [phenylethylamine] | 1.435±0.189 | 0,085 M |  |
| CC(=O)OCC=C(C)C [prenyl acetate] | 2.017±0.274 | 0,069 M |  |
| CCC/C=C/C=O [trans-2-hexenal] | 1.790±0.281 |  |  |
| COc1cc(C=O)ccc1O [vanillin] |  | 0,024 M |  |
| C/C1=C\CC/C(C)=C/CC(C)(C)/C=C/C1 [α-humulene] | 6.592±0.249 | 1,10E-08 M |  |
